Where “and” joins values, the source holds several entries; their conditions need not be identical. Identical values can stand only once.
Assays:
Kinetic solubility assay = format: physicochemical; conditions: PBS buffer with 1% DMSO, 4 °C, aqueous buffer, kinetic from dmso stock, 1% DMSO, 99% PBS buffer (pH 7.4)
Experimental: Solubility Assay. A 100 mL flask with phosphate-buffered saline was prepared from NaCl, KCI, Na2HPO4, KH2PO4, and distilled water. The buffer was adjusted to pH 7.4 with HCl. Afterwards, 10mM stock solutions of compounds in DMSO were prepared. 10 µL compound stock solution was added to 990 µL PBS in Eppendorf tubes. As a reference, 10 µL compound stock solution was added to 990 µL HPLC-grade MeOH in Eppendorf tubes. All tubes were centrifuged (16000 relative centrifugal force, 4 °C, 20 min). Subsequently, 600 µL supernatant was extracted carefully and filled into HPLC vials. […] Compounds solubility was calculated by AUC of compound in PBS divided by AUC of reference solution multiplied by concentration of the compound in solution.

platelets = experiment: Flow cytometry assay of platelet degranulation (P-Selectin surface expression in PRP); format: cell-based, human; conditions: PRP pre-incubated with compound (100 µM), then CRP-XL (1 µg/mL); % ±SEM normalized to CRP-XL-treated vehicle PRP
Experimental: Platelet Degranulation Studies of Derivatives. Concurrent with the β-Arrestin recruitment potency optimization, the compounds were also tested and developed according to their functional activity. To determine the ability of a compound to modulate platelets, P-Selectin surface expression was measured. P-Selectin is a surface protein involved in cell adhesion mechanisms and can be found on activated platelets. After induction of platelet aggregation in platelet-rich plasma (PRP), treatment with the respective compound should therefore lead to a significant reduction in P-Selectin expression. […]. […]. Similarly, platelet degranulation potency was highly sensitive toward "linker"-changes (Structure C, Table 1). A distinct trend could not be registered. […]. Flow Cytometry Assay. The inhibition of platelet degranulation was determined via flow cytometry experiments. Platelets were treated with collagen-related peptide (CRP-XL, CambCol Laboratories, Cambridge, UK) and the platelets' activation state was determined (Geue, S.; Aurbach, K.; Manke, M.-C.; Manukjan, G.; Münzer, P.; Stegner, D.; Brähler, C.; Walker-Allgaier, B.; Märklin, M.; Borst, C. E.; Quintanilla-Fend, L.; Rath, D.; Geisler, T.; Salih, H. R.; Seizer, P.; Lang, F.; Nieswandt, B.; Gawaz, M.; Schulze, H.; Pleines, I.; Borst, O. Pivotal role of pdk1 in megakaryocyte cytoskeletal dynamics and polarization during platelet biogenesis. Blood 2019, 134, 1847-1858; and Malehmir, M.; Pfister, D.; Gallage, S.; Szydlowska, M.; Inverso, D.; Kotsiliti, E.; Leone, V.; Peiseler, M.; Surewaard, B. G. J.; Rath, D.; Ali, A.; Wolf, M. J.; Drescher, H.; Healy, M. E.; Dauch, D.; Kroy, D.; Krenkel, O.; Kohlhepp, M.; Engleitner, T.; Olkus, A.; Sijmonsma, T.; Volz, J.; Deppermann, C.; Stegner, D.; Helbling, P.; Nombela-Arrieta, C.; Rafiei, A.; Hinterleitner, M.; Rail, M.; Baku, F.; Borst, O.; Wilson, C. L.; Leslie, J.; O'Connor, T.; Wes-ton, C. J.; Chauhan, A.; Adams, D. H.; Sheriff, L.; Teijeiro, A.; Prinz, M.; Bogeska, R.; An-stee, N.; Bongers, M. N.; Notohamiprodjo, M.; Geisler, T.; Withers, D. J.; Ware, J.; Mann, D. A.; Augustin, H. G.; Vegiopoulos, A.; Milsom, M. D.; Rose, A. J.; Lalor, P. F.; Llovet, J. M.; Pinyol, R.; Tacke, F.; Rad, R.; Matter, M.; Djouder, N.; Kubes, P.; Knolle, P. A.; Unger, K.; Zender, L.; Nieswandt, B.; Gawaz, M.; Weber, A.; Heikenwalder, M. Platelet gpibα is a mediator and potential interventional target for nash and subsequent liver cancer. Nat. Med. 2019, 25, 641-655). Briefly, PRP was isolated from peripheral human blood collected in citrate-phosphate-dextrose solution with adenine (CPDA) and diluted with phosphate-buffered saline (PBS) (Sigma Aldrich Co., Ltd., St. Luis, Missouri, USA) supplemented with CaCl2 and MgCl2. PRP (106 platelets /sample) was preincubated with the respective compound (100 µM) for 15 min. Samples were treated with 1 µg/ml CRP-XL (CambCol Laboratories, Cambridge, UK) for 30 min at room temperature in the presence of the respective fluorochrome-conjugated antibody against P-Selectin (CD62P-FITC; Beckman Coulter, Brea, CA, USA). Subsequently, samples were fixed in 0.5% paraformaldehyde and analyzed on a FACS-Calibur flow cytometer (FACS-Caliber flow cytometer, Becton-Dickinson, East Rutherford, NJ, USA). Mean fluorescence intensity (MFI) was used as a quantitative measurement of platelet surface expression.

[1] = Metabolic stability assay in mouse liver microsomes; format: in vitro ADME; conditions: after 60 min
Experimental: (§1) Metabolic Stability Assay. Pooled liver microsomes from mice (male) and humans (male) were purchased from Sekisui XenoTech, LLC, Kansas City, KS, USA. Metabolic stability assays were performed in the presence of an NADPH-regenerating system consisting of 5 mM glucose-6-phosphate, 5 U/mL glucose-6-phosphate dehydrogenase, and 1 mM NADP^+. Liver microsomes (20 mg/mL), NADPH-regenerating system, and 4 mM MgCl2·6 H2O in 0.1 M TRIS-HCl-buffer (pH 7.4) were preincubated for 5 min at 37 °C and 750 rpm on a shaker. The reaction was started by adding the preheated compound at 10 mM resulting in a final concentration of 0.1 mM. […] The samples were vortexed for 30 s and centrifuged (21910 relative centrifugal force, 4 °C, 20 min). The supernatant was used directly for LC-MS analysis.
(§2) All compound incubations were conducted at least in triplicates. Additionally, a negative control containing BSA (20 mg/mL) instead of liver microsomes and a positive control using Verapamil instead of the compound was performed. A limit of 1% organic solvent during incubation was not exceeded. […]

[2] = Metabolic stability assay in human liver microsomes; format: in vitro ADME
Experimental: as §1, §2

HEK293 cells = experiment: RealTime-Glo MT cell viability assay; format: cell-based; conditions: concentrations of 1 µM and below, up to 72 h
Experimental: Cell viability studies. […].
Cell Viability Assay. RealTime-Glo™ MT Cell Viability Assay (Promega Corporation, Madison, WI, USA) was performed using THP1 cells and HEK293 cells as indicated in the manufacturer's manual to measure a compound's cytotoxicity on cells. In brief, in a white solid-bottom 96-well plate cells (5x10^3/well) were seeded and incubated with the respective compounds diluted in DMEM (Gibco, Carlsbad, CA, USA). After cell seeding viability reagent is added. Subsequently, cells were incubated with the compound and viability reagent containing medium at 37 °C, 5% CO2 for 72 h. The luminescence signal was determined after 1, 24, 48, and 72 hours on a GloMax®-Multi Detection System plate reader (Promega Corporation, Madison, Wl, USA).

CCCCN(CCCNC(=O)c1ccc(-c2ccccc2)s1)Cc1ccccc1 [Compound 27, N-(3-(benzyl(butyl)amino)propyl)-5-phenylthiophene-2-carboxamide]
solubility (Kinetic solubility assay): 10 µg/mL
solubility (Kinetic solubility assay; average of three independent experiments ± SEM): 28 ± 4 µM
P-Selectin expression reduction (platelets): 77% and 77±6%
compound remained [1]: around 24%
compound remained ([2]; 60 min): Around 69%
metabolic stability (in words) ([2]; over the course of 60 min): stable
cell toxicity / tolerability (in words) (HEK293 cells): tolerated well

From patent EP4620949A1, “ACKR3 MODULATORS FOR CARDIOVASCULAR OR ANTIPLATELET THERAPY” (Eberhard Karls Universität Tübingen (Medizinische Fakultät), priority 2024, dated 2025)
